Key:
[1] = target: T1, Human Glucocorticoid Receptor (Homo sapiens, UniProt P04150); assay: Competition Binding in IM-9 Human Glucocorticoid Receptor (GR IM-9); details: cytosol from IM-9 cell line, 1.5 nM [3H]-Dexamethasone, 4° C. for 6 hours
T1 construct: endogenous in cells; host or cells: cytosol from IM-9 cell line
T1 sequence (P04150 1-777): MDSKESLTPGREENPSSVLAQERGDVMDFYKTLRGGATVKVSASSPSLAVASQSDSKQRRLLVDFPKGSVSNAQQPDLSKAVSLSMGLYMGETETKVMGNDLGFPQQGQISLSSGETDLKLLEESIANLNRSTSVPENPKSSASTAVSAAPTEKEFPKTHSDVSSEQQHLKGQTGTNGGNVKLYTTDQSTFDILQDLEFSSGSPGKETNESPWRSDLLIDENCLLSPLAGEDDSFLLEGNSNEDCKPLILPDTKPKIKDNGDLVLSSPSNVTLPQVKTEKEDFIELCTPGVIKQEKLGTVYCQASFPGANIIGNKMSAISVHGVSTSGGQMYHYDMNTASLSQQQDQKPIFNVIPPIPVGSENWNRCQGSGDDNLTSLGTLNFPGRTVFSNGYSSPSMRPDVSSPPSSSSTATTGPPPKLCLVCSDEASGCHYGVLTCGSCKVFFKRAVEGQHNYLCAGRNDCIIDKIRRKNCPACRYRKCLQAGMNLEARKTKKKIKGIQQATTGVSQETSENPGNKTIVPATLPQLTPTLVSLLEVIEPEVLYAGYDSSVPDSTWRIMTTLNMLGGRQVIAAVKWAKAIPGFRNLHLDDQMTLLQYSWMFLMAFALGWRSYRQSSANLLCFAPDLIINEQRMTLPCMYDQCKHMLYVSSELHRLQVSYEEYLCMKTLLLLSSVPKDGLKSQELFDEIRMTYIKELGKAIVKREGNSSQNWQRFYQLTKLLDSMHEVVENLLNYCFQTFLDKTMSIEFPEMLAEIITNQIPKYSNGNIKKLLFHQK
In short: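 Radioligand competition using 100 μg IM-9 cell cytosol and 1.5 nM [3H]-dexamethasone, incubated 6 h at 4° C in TES/molybdate buffer, pH 7.4. Filtration on PEI-treated GF/B filters, scintillation counting; nonspecific binding defined with 10 μM triamcinolone.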

[2] = target: T2, AR-Receptor (Homo sapiens, UniProt P10275); assay: Functional Assay AR-Receptor (MDA-MB-453 cells, luciferase); assay type: cell-based; details: antagonist effect in the presence of DHT 1 nM, 24 h, luciferase luminescence, read-out: AR antag KB
T2 sequence (P10275 1-920 Q868H): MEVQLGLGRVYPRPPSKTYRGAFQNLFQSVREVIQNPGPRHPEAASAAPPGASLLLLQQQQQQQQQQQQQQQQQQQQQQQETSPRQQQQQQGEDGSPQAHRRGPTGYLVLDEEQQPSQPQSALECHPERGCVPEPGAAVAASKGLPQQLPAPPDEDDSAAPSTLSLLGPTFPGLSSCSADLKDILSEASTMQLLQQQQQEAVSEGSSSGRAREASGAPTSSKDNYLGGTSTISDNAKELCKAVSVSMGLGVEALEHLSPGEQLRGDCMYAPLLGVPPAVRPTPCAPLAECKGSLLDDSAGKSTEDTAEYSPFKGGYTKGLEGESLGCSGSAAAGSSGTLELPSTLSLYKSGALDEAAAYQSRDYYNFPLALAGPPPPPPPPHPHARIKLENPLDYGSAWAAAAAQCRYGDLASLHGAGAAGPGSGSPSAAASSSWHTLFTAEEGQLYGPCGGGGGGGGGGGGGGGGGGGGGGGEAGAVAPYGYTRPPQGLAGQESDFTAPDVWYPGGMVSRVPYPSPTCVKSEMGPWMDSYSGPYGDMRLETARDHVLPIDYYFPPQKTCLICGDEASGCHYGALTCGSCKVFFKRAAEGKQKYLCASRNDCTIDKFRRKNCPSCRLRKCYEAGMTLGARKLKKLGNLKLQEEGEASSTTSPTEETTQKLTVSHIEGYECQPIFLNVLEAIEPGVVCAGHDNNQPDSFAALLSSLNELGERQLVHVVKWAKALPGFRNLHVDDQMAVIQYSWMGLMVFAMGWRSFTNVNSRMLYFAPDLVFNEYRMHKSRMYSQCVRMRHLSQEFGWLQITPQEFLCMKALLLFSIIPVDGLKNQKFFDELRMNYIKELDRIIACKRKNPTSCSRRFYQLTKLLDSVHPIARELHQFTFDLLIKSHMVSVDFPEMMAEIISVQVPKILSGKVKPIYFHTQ
In short: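 MDA-MB-453 cells, 8000/well, were switched to medium with 0.1% FBS and exposed to compounds for 24 h at 37 °C. Antagonist mode used 1 nM DHT. After lysis and a freeze-thaw cycle, luciferase luminescence was read.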

| SMILES | IC50 [1] | Kb [2] |
| --- | --- | --- |
| CC(=O)C1=C(C)NC(C)=C(C(=O)OCc2ccc(Br)cc2)C1c1csc2ncccc12 (centres unmarked) [Example C65, 4-bromobenzyl 5-acetyl-2,6-dimethyl-4-(thieno[2,3-b]pyridin-3-yl)-1,4-dihydropyridine-3-carboxylate] | < 0.1 µM | 0.1 to 1 µM |
| COC(=O)C1=C(C)NC(C=O)=C(C(=O)OC)C1c1csc2c(C#N)cccc12 (centres unmarked) [Example C119, Dimethyl 4-(7-cyanobenzo[b]thiophen-3-yl)-2-formyl-6-methyl-1,4-dihydropyridine-3,5-dicarboxylate] | < 0.1 µM | 0.1 to 1 µM |
| CC(=O)C1=C(C)NC(C)=C(C(=O)OC2CCCCC2)C1c1csc2ncccc12 (centres unmarked) [Example C36, Cyclohexyl 5-acetyl-2,6-dimethyl-4-(thieno[2,3-b]pyridin-3-yl)-1,4-dihydropyridine-3-carboxylate] | < 0.1 µM | ≥ 1 µM |
| CC(=O)C1=C(C)NC(C)=C(C(=O)OCc2ccccc2)C1c1csc2ncccc12 (centres unmarked) [Example C39, Benzyl 5-acetyl-2,6-dimethyl-4-(thieno[2,3-b]pyridin-3-yl)-1,4-dihydropyridine-3-carboxylate] | < 0.1 µM | ≥ 1 µM |
| CC(=O)C1=C(C)NC(C)=C(C(=O)OCC2CCOCC2)C1c1csc2ccc(Cl)cc12 (centres unmarked) [Example C43, (Tetrahydro-2H-pyran-4-yl)methyl 5-acetyl-4-(5-chlorobenzo[b]thiophen-3-yl)-2,6-dimethyl-1,4-dihydropyridine-3-carboxylate] | 0.1 to 1 µM | < 0.1 µM |
| CC(=O)C1=C(C)NC(C)=C(C(=O)OCc2ccccc2)C1c1csc2ccc(F)cc12 (centres unmarked) [Example C41, Benzyl 5-acetyl-4-(5-fluorobenzo[b]thiophen-3-yl)-2,6-dimethyl-1,4-dihydropyridine-3-carboxylate] | 0.1 to 1 µM | 0.1 to 1 µM |
| CC(=O)C1=C(C)NC(C)=C(C(=O)OCc2cccnc2)C1c1csc2c(Br)cccc12 (centres unmarked) [Example C58, Pyridin-3-ylmethyl 5-acetyl-4-(7-bromobenzo[b]thiophen-3-yl)-2,6-dimethyl-1,4-dihydropyridine-3-carboxylate] | < 0.1 µM | 0.1 to 1 µM |
| CC(=O)C1=C(C)NC(C)=C(C(=O)OCc2ccc(C#N)cc2)C1c1csc2ncccc12 (centres unmarked) [Example C73, 4-cyanobenzyl 5-acetyl-2,6-dimethyl-4-(thieno[2,3-b]pyridin-3-yl)-1,4-dihydropyridine-3-carboxylate] | < 0.1 µM | ≥ 1 µM |
| CC(=O)C1=C(C)NC(C)=C(C(=O)OC(C)(C)c2ccccc2)C1c1csc2ncccc12 (centres unmarked) [Example C71, 2-phenylpropan-2-yl 5-acetyl-2,6-dimethyl-4-(thieno[2,3-b]pyridin-3-yl)-1,4-dihydropyridine-3-carboxylate] | < 0.1 µM | ≥ 1 µM |
| CC(=O)C1=C(C)NC(C)=C(C(=O)OCC2CCOCC2)C1c1csc2ccccc12 (centres unmarked) [Example C2, (Tetrahydro-2H-pyran-4-yl)methyl 5-acetyl-4-(benzo[b]thiophen-3-yl)-2,6-dimethyl-1,4-dihydropyridine-3-carboxylate] | 0.1 to 1 µM | 0.1 to 1 µM |
| CC(=O)C1=C(C)NC(C)=C(C(=O)OCc2cccc(Br)c2)C1c1csc2ncccc12 (centres unmarked) [Example C66, 3-bromobenzyl 5-acetyl-2,6-dimethyl-4-(thieno[2,3-b]pyridin-3-yl)-1,4-dihydropyridine-3-carboxylate] | < 0.1 µM | < 0.1 µM |

Other lines, results leading:

| IC50 [1] | Kb [2] | SMILES |
| --- | --- | --- |
| < 0.1 µM | 0.1 to 1 µM | CC(=O)C1=C(C)NC(C)=C(C(=O)OCc2cccc(-c3cccnc3)c2)C1c1csc2ncccc12 (centres unmarked) [Example L4, 3-(pyridin-3-yl)benzyl 5-acetyl-2,6-dimethyl-4-(thieno[2,3-b]pyridin-3-yl)-1,4-dihydropyridine-3-carboxylate] |
| < 0.1 µM | 0.1 to 1 µM | CC(=O)C1=C(C)NC(C)=C(C(=O)OCc2ccc(-c3cccnc3)cc2)C1c1csc2ncccc12 (centres unmarked) [Example L2, 4-(pyridin-3-yl)benzyl 5-acetyl-2,6-dimethyl-4-(thieno[2,3-b]pyridin-3-yl)-1,4-dihydropyridine-3-carboxylate] |
| < 0.1 µM | 0.1 to 1 µM | CC1=C(C#N)C(c2csc3c(C#N)cccc23)C(C(=O)OCC2CC2)=C(N)N1 (centres unmarked) [Example D24, cyclopropylmethyl 2-amino-5-cyano-4-(7-cyanobenzo[b]thiophen-3-yl)-6-methyl-1,4-dihydropyridine-3-carboxylate] |
| < 0.1 µM | < 0.1 µM | CC(=O)C1=C(C)NC(C2CC2)=C(C(=O)OCc2ccc(F)cc2)C1c1csc2ncccc12 (centres unmarked) [Example J42, 4-fluorobenzyl 5-acetyl-2-cyclopropyl-6-methyl-4-(thieno[2,3-b]pyridin-3-yl)-1,4-dihydropyridine-3-carboxylate] |
| < 0.1 µM | ≥ 1 µM | COC(=O)C1=C(C)NC(N)=C(C(=O)OCC(C)(C)C)C1c1csc2c(C#N)cccc12 (centres unmarked) [Example D43, 5-Methyl 3-neopentyl 2-amino-4-(7-cyanobenzo[b]thiophen-3-yl)-6-methyl-1,4-dihydropyridine-3,5-dicarboxylate] |
| < 0.1 µM | 0.1 to 1 µM | CC(=O)C1=C(C)NC(N)=C(C(=O)OCc2cccc(F)c2)C1c1csc2c(C#N)cccc12 (centres unmarked) [Example D32, 3-Fluorobenzyl 5-acetyl-2-amino-4-(7-cyanobenzo[b]thiophen-3-yl)-6-methyl-1,4-dihydropyridine-3-carboxylate] |
| < 0.1 µM | ≥ 1 µM | CC1=C(C(=O)OCC2CC2)C(c2csc3c(C#N)cccc23)C(C(=O)OCC2CC2)=C(N)N1 (centres unmarked) [Example D46, Bis(cyclopropylmethyl) 2-amino-4-(7-cyanobenzo[b]thiophen-3-yl)-6-methyl-1,4-dihydropyridine-3,5-dicarboxylate] |
| < 0.1 µM | 0.1 to 1 µM | COC(=O)C1=C(C)NC(N)=C(C(=O)OCC2CC2)C1c1csc2c(C#N)cc(F)cc12 (centres unmarked) [Example D39, 3-(Cyclopropylmethyl) 5-methyl 2-amino-4-(7-cyano-5-fluorobenzo[b]thiophen-3-yl)-6-methyl-1,4-dihydropyridine-3,5-dicarboxylate] |
| < 0.1 µM | 0.1 to 1 µM | CC(=O)C1=C(C)NC(C)=C(C(=O)OCc2cccc(-c3ccncc3)c2)C1c1csc2ncccc12 (centres unmarked) [Example L3, 3-(pyridin-4-yl)benzyl 5-acetyl-2,6-dimethyl-4-(thieno[2,3-b]pyridin-3-yl)-1,4-dihydropyridine-3-carboxylate] |
| 0.1 to 1 µM | ≥ 1 µM | COC(=O)C1=C(C2CC2)NC(C)=C(C(C)=O)C1c1csc2ncccc12 (centres unmarked) [Example J23, Methyl 5-acetyl-2-cyclopropyl-6-methyl-4-(thieno[2,3-b]pyridin-3-yl)-1,4-dihydropyridine-3-carboxylate] |
| < 0.1 µM | 0.1 to 1 µM | CC1=C(C(=O)OC2CC2)C(c2csc3c(C#N)cccc23)C(C(=O)OCC2CC2)=C(N)N1 (centres unmarked) [Example D37, 5-Cyclopropyl 3-(cyclopropylmethyl) 2-amino-4-(7-cyanobenzo[b]thiophen-3-yl)-6-methyl-1,4-dihydropyridine-3,5-dicarboxylate] |
